Earlier results as cited in US20080286343A1, “Solid form” (priority 2007, published 2008).

Conditions: g water per 1 g active; slightly soluble

SMILES: Cn1c(=O)c2[nH]cnc2n(C)c1=O [Theophylline]
- Solubility in water (1 g in ... g water): 100-1000 g water
